In test [1] the target is T1, 4-galactosyl-N-acetylglucosaminide 3-alpha-L-fucosyltransferase FUT5 (Homo sapiens, UniProt Q11128).
T1 sequence (Q11128 whole entry): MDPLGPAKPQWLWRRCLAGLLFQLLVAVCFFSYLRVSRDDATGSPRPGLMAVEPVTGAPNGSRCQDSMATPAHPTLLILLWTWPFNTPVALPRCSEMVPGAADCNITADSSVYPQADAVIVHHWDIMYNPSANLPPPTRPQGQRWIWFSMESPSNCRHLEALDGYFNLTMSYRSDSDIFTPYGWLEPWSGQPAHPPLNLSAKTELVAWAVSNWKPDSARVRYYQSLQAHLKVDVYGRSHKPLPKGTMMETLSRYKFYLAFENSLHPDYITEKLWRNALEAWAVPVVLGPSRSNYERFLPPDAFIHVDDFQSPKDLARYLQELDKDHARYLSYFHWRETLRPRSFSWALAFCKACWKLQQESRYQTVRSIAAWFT
Put plainly: Inhibitory activity against fucosyltransferase (FucT V) in the presence of fucosyl acceptor N-acetyllactosamine.

Test [2] addresses T1, 4-galactosyl-N-acetylglucosaminide 3-alpha-L-fucosyltransferase FUT5. The experiment in a line: Inhibitory activity against fucosyltransferase (FucT V) in the presence of 10 mM fucosyl acceptor N-acetyllactosamine.
Test [3] has the same target. Put plainly: Inhibitory activity against fucosyltransferase (FucT V) in the presence of 1 mM fucosyl acceptor N-acetyllactosamine.

Drawing on ChEMBL document CHEMBL1134803, “Inhibition of fucosyltransferase V by a GDP-Azasugar” (Bioorg Med Chem Lett, 2001), this text covers IC50 for three compounds.

In the case of `Nc1nc2c(ncn2[C@@H]2O[C@H](COP(=O)(O)OP(=O)(O)O)[C@@H](O)[C@H]2O)c(=O)[nH]1`, the IC50 in test [1] was 67 µM.
On to `C[C@@H]1N[C@H](COP(=O)(O)OP(=O)(O)OC[C@H]2O[C@@H](n3cnc4c(O)nc(N)nc43)[C@H](O)[C@@H]2O)[C@@H](O)[C@@H]1O`, for which the IC50 in test [2] worked out at 82 µM; in test [3] it was 45 µM.
Consider `NCCOP(=O)(O)OP(=O)(O)OC[C@H]1O[C@@H](n2cnc3c(O)nc(N)nc32)[C@H](O)[C@@H]1O`, for which the IC50 in test [1] was above 1000 µM.
